Assay [1] concerns Rotavirus. The assay can be described thus: Inhibitory concentration against Wa (human) strain of rotavirus. The class given is functional, organism-based.
In assay [2] the test system is Rotavirus. As to the kind of experiment: Inhibitory concentration against NCDV (bovine) strain of rotavirus. The class given is functional, organism-based.
Another assay addresses T1, E-selectin (Homo sapiens, UniProt P16581).
T1 sequence (P16581 whole entry): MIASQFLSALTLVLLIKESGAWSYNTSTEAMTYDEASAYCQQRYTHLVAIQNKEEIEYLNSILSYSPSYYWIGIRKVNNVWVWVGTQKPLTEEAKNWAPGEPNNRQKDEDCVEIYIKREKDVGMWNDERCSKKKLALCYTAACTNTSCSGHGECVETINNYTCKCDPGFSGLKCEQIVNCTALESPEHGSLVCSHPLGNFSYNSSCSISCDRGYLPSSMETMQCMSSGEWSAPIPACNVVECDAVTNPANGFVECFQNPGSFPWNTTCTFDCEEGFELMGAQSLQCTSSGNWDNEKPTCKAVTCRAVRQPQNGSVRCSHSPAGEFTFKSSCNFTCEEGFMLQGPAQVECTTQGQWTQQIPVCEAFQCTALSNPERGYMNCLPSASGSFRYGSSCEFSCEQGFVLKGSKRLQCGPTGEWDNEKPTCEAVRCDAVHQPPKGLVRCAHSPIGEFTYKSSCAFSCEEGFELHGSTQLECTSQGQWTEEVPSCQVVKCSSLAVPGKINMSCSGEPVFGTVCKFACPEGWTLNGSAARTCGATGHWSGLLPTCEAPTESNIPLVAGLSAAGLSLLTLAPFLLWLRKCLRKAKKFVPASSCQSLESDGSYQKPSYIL
The assay can be described thus: Inhibitory concentration against E-selectin.

Each structure is given as a SMILES string. pIC50: −log10 of the molar value.

For the compound `COC1OC(CSC(C)C(=O)O)C(O)C(O)C1O` (centres undefined), the pIC50 with Rotavirus [1] and in the assay with Rotavirus [2] was less than 1.60 throughout.
For `CC(=O)N[C@H]1[C@H]([C@H](O)[C@H](O)CO)O[C@@](O[C@H]2[C@@H](O)[C@@H](CO)O[C@@H](O[C@@H]([C@H](O[C@@H]3O[C@@H](C)[C@@H](O)[C@@H](O)[C@@H]3O)[C@H](C=O)NC(C)=O)[C@H](O)CO)[C@@H]2O)(C(=O)O)C[C@@H]1O` [SIALYL LEWIS X], on E-selectin, the pIC50 is 3.15.
Still for that read-out and setting: with `C[C@@H]1O[C@@H](O[C@@H]2CCCC[C@H]2O[C@@H]2O[C@@H](CO)[C@H](O)[C@H](OCC(=O)O)[C@@H]2O)[C@@H](O)[C@@H](O)[C@@H]1O` the figure was 3.30.

For the origin of these results see ChEMBL document CHEMBL1134435, “Synthesis of novel sialylmimetics as biological probes” (Bioorg Med Chem Lett, 2001).
